Where two headings read alike, the source gives them in different places.
Columns and labels:
[1] = target: T1, human GABAA α2β3γ2 receptors (Homo sapiens, UniProt P18507+P47869); test: [3H]-flumazenil competition binding, HEK293 membranes; details: 1 nM [3H]-flumazenil
T1 construct: expressed in transfected cells; host or cells: HEK293-EBNA, transient
Procedure: (§1) HEK293-EBNA cells adapted to grow in suspension were transiently transfected with the plasmids containing the desired GABAA receptor subunit cDNAs at α, β, γ, 1:1:2 ratio using XtremeGENE Q2 (Cat. No. 03045595001, Roche Applied Science, RAS, Rotkreuz, Switzerland) as previously described. GABAA α1β2γ2, α2β3γ2, α3β3γ2, α4β3γ2, α5β3γ2 and α6β3γ2 receptor subtypes were expressed in this system. 48 h post transfection, the cells were harvested and washed three times with cold PBS and frozen at − 80 °C.
(§2) Non-specific binding was determined in the presence of 10 μM diazepam.

[2] = target: T2, human GABAA α3β3γ2 receptors (Homo sapiens, UniProt P18507+P34903); test: as above; details: 1 nM [3H]-flumazenil
T2 construct: expressed in transfected cells; host or cells: HEK293-EBNA, transient
Procedure: as §1, §2

Serotonin 5-HT1A = system: T3, Serotonin 5-HT1A; test: Cerep binding; set-up: species or system human; details: 10 μM; [3H]8-OH-DPAT; hum. recomb. (HEK-293)
T3 construct: purchased Eurofins Cerep

[3] = Plasma levels, prepulse inhibition; type: in vivo, rat; details: approximately 60 min, mean ± SD
Procedure: intensities (72, 76, 80, 84 dB) at total plasma concentrations of 56 ± 20, 169 ± 20, and […]
Compound administered at 1, 3 and 10 mg/kg p.o. to male Sprague-Dawley rats 30 min prior to testing. Bars indicate mean percent prepulse inhibition (% PPI) ± SEM; 10 animals per dose group. Background noise: 68 dB. Startle pulse: 12 0 dB. For full methods refer to:
Nordquist et al. (2008). Effects of aripiprazole/OPC-14597 on motor activity, pharmacological models of psychosis, and brain activity in rats. Neuropharmacology , 54,405-416.
Animals were euthanized at the end of testing and plasma samples were collected approximately 60 min post administration; n = 4 rats per group.
(1 picture or pasted object on this page, not shown here)

Adenosine A2A = system: T4, Adenosine A2A; test: Cerep binding; set-up: species or system human; details: 10 μM; [3H]CGS 21680; hum. recomb. (HEK-293)
T4 construct: host or cells: HEK-293

Dopamine transporter = system: T5, Dopamine transporter; test: Cerep binding; set-up: species or system human; details: 10 μM; [3H]BTCP; hum. recomb. (CHO)
T5 construct: host or cells: CHO

[4] = Pharmacokinetics, single oral dosing; type: in vivo; details: plasma; for Tmax: read-out: Tmax (range)
Procedure: Concentrations were chosen to achieve the desired doses by administering 5 mL/kg to rats and 2.5 mL/kg to NHPs via oral gavage.
The calibration range was from 1.0 to 5000 ng/mL. After protein precipitation with ethanol, the sample solution was injected onto a Gemini C18 trapping column (2 × 10 mm; Phenomenex, Torrance, CA, USA) and polar endogenous compounds and salts were rinsed off. Analytical separation was performed on an Atlantis T3 column (2.1 × 50 mm) (Waters, Milford, MA, USA), using methanol/water containing 0.1% formic acid as mobile phase. A drug analogue was used as an internal standard.

Opioid κ = system: T6, Opioid κ; test: Cerep binding; set-up: species or system human; details: 10 μM; [3H]U 69593; hum. recomb. (CHO)
T6 construct: host or cells: CHO

Plasma protein binding = type: in vitro ADME
Text: Free plasma concentrations were used to estimate receptor occupancy.

Dopamine D4.4 = system: T7, Dopamine D4.4; test: Cerep binding; set-up: species or system human; details: 10 μM; [3H]spiperone; hum. recomb. (CHO)
T7 construct: host or cells: CHO

rats = test: GLP toxicology and safety pharmacology, daily oral administration; type: in vivo, rat; details: supra-therapeutic plasma exposures, up to 26 weeks
Histamine H1 = system: T8, Histamine H1; test: Cerep binding; set-up: species or system human; details: 10 μM; [3H]pyrilamine; hum. recomb. (HEK-293)
T8 construct: host or cells: HEK-293

Cholecystokinin CCK2 = system: T9, Cholecystokinin CCK2; test: Cerep binding; set-up: species or system human; details: 10 μM; [125I]CCK-8s; hum. recomb. (CHO)
T9 construct: purchased Eurofins Cerep

Sigma (non-selective) = test: Cerep binding; details: 10 μM; [3H]DTG; rat cerebral cortex
Adenosine A1 = system: T10, Adenosine A1; test: Cerep binding; set-up: species or system human; details: 10 μM; [3H]DPCPX; hum. recomb. (CHO)
T10 construct: host or cells: CHO

Adenosine A3 = system: T11, Adenosine A3; test: Cerep binding; set-up: species or system human; details: 10 μM; [125I]AB-MECA; hum. recomb. (HEK-293)
T11 construct: host or cells: HEK-293

Purinergic P2Y = test: Cerep binding; details: 10 μM; [35S]dATPαS; rat cerebral cortex
[5] = Pharmacokinetics, single intravenous dosing; type: in vivo; details: Wistar, rat, plasma, 4.3 mg/kg i.v., 2 male
[6] = Beagle, dog, 4 mg/kg oral, capsule, n = 3 male, ± standard deviation
[7] = C57/Bl6, mouse, 4 mg/kg oral, microsuspension, n = 2 male
[8] = Wistar, rat, 9 mg/kg oral, microsuspension, n = 2 male

Cc1onc(-c2ccc(F)cc2)c1COc1ccc(C(=O)N2CCS(=O)(=O)CC2)cn1 [basmisanil]
Ki [1]: 458 ± 27 nM
Ki [2]: 510 ± 21 nM
% Inhibition (Serotonin 5-HT1A): 0%
total plasma concentration ([3]; 1 mg/kg p.o.): 56 ± 20 ng/mL
total plasma concentration ([3]; 3 mg/kg p.o.): 169 ± 20 ng/mL
total plasma concentration ([3]; 10 mg/kg p.o.): 729 ± 255 ng/mL
% Inhibition (Adenosine A2A): 9%
% Inhibition (Dopamine transporter): 19%
bioavailability ([4]; Beagle, dog, 4 mg/kg oral, capsule, n = 3 male): 61%
Tmax ([4]; Beagle, dog, 4 mg/kg oral, capsule, n = 3 male, median): 90 min
AUC(0-t) [4, 6]: 10600 ng·h/mL
Cmax [4, 6]: 788 ± 275 ng/mL
AUC(0-t) [4, 7]: 455 ng·h/mL
Cmax [4, 7]: 520 ng/mL
bioavailability [4, 7]: 25%
Tmax [4, 7]: 18 min
AUC(0-t) [4, 8]: 1100 ng·h/mL
Cmax [4, 8]: 400 ng/mL
bioavailability [4, 8]: 41%
Tmax [4, 8]: 30 min
% Inhibition (Opioid κ): 13%
fraction unbound (Plasma protein binding; human, plasma, primates, including humans): 0.055
free fraction (Plasma protein binding; primates, including humans): 5.5%
fraction unbound (Plasma protein binding; rat, rats): 0.14
% Inhibition (Dopamine D4.4): 9%
convulsions and EEG alterations (rats): no convulsions and no EEG alterations
% Inhibition (Histamine H1): 10%
% Inhibition (Cholecystokinin CCK2): -21%
% Inhibition (Sigma (non-selective)): 58%
% Inhibition (Adenosine A1): 28%
% Inhibition (Adenosine A3): 6%
% Inhibition (Purinergic P2Y): 9%
half-life [5]: 72 min
clearance ([5]; read-out: Total CL): 54 mL/min/kg
Vd ([5]; read-out: Vss): 2.9 L/kg
